Experimental data: patent US20190330224A1, “ACC INHIBITORS AND USES THEREOF” (Gilead Apollo, LLC, priority 2015, published 2019)
≈ marks a conversion by molar mass, not a printed value. Read-outs that look alike come from different tables or passages of the source.

How the values were obtained:
Human ACC2 = Human ACC2 (Homo sapiens, UniProt O00763); assay: In vitro ACC2 inhibition assay (ADP-Glo), human ACC2; format: biochemical; details: 5 nM ACC2, 20 μM ATP, 20 μM acetyl-CoA
C. albicans ATCC 90028 = assay: Anti-Fungal Activity Assay (broth microtiter MIC), C. albicans; format: cell-based, Candida albicans; details: Candida albicans, ATCC90028, 48 h, read-out: MIC C. albicans ATCC 90028
Method: (§1) Compounds of the present invention were evaluated in an Anti-Fungal Activity Assay. An exemplary procedure for the assay, which measures the susceptibility of various Candida species to anti-fungal compounds, follows. Compounds to be tested (including fluconazole and amphotericin B) were dissolved in DMSO to obtain a solution having a concentration of 1 mg/mL. […] All species were grown from frozen stock by directly plating on to freshly prepared Sabouraud Dextrose agar (BD, Difco) and incubated overnight in ambient air at 35° C. for 24 h. A direct suspension was prepared in RPMI 1640+MOPS (Lonza, Biowhittaker) by taking individual colonies from the overnight cultures using sterile swabs soaked in sterile saline. The concentration of the suspension was determined using pre-determined standard curves. […] Broth microtiter MIC challenge plates were prepared following CLSI guidelines (M27-A3, Vol. 28 No. 14). The original CLSI guidelines focused on reading Candida MICs after 48 h of incubation. As reading after only 24 h offers a clear advantage of patient care, QC limits are being established for all drugs at 24 h. That being said there are no known interpretive breakpoints for amphotericin B at 24 h and the current fluconazole interpretive breakpoints are based on a 48 h reading. The MIC breakpoints for the test compounds were recorded at 48 h, and for the soraphen the 24 h time-point was added. All MIC determinations were achieved by visually comparing the growth found in the antibiotic challenged wells to that of the growth control.

C. krusei ATCC 6258 = assay: Anti-Fungal Activity Assay (broth microtiter MIC), C. krusei; format: cell-based, Candida krusei; details: Pichia kudriavzevii, ATCC6258, 48 h, read-out: MIC C. krusei ATCC 6258
Method: as §1

[1] = tested on: C. parapsilosis ATCC 22019; assay: Anti-Fungal Activity Assay (broth microtiter MIC), C. parapsilosis; format: cell-based, Candida parapsilosis; details: Lodderomyces parapsilosis, ATCC22019, 48 h, read-out: MIC C. parapsilosis ATCC 22019
Method: as §1

[2] = 3 replicates, MIC recorded at 48 h

Sequence of Human ACC2 (O00763 whole entry): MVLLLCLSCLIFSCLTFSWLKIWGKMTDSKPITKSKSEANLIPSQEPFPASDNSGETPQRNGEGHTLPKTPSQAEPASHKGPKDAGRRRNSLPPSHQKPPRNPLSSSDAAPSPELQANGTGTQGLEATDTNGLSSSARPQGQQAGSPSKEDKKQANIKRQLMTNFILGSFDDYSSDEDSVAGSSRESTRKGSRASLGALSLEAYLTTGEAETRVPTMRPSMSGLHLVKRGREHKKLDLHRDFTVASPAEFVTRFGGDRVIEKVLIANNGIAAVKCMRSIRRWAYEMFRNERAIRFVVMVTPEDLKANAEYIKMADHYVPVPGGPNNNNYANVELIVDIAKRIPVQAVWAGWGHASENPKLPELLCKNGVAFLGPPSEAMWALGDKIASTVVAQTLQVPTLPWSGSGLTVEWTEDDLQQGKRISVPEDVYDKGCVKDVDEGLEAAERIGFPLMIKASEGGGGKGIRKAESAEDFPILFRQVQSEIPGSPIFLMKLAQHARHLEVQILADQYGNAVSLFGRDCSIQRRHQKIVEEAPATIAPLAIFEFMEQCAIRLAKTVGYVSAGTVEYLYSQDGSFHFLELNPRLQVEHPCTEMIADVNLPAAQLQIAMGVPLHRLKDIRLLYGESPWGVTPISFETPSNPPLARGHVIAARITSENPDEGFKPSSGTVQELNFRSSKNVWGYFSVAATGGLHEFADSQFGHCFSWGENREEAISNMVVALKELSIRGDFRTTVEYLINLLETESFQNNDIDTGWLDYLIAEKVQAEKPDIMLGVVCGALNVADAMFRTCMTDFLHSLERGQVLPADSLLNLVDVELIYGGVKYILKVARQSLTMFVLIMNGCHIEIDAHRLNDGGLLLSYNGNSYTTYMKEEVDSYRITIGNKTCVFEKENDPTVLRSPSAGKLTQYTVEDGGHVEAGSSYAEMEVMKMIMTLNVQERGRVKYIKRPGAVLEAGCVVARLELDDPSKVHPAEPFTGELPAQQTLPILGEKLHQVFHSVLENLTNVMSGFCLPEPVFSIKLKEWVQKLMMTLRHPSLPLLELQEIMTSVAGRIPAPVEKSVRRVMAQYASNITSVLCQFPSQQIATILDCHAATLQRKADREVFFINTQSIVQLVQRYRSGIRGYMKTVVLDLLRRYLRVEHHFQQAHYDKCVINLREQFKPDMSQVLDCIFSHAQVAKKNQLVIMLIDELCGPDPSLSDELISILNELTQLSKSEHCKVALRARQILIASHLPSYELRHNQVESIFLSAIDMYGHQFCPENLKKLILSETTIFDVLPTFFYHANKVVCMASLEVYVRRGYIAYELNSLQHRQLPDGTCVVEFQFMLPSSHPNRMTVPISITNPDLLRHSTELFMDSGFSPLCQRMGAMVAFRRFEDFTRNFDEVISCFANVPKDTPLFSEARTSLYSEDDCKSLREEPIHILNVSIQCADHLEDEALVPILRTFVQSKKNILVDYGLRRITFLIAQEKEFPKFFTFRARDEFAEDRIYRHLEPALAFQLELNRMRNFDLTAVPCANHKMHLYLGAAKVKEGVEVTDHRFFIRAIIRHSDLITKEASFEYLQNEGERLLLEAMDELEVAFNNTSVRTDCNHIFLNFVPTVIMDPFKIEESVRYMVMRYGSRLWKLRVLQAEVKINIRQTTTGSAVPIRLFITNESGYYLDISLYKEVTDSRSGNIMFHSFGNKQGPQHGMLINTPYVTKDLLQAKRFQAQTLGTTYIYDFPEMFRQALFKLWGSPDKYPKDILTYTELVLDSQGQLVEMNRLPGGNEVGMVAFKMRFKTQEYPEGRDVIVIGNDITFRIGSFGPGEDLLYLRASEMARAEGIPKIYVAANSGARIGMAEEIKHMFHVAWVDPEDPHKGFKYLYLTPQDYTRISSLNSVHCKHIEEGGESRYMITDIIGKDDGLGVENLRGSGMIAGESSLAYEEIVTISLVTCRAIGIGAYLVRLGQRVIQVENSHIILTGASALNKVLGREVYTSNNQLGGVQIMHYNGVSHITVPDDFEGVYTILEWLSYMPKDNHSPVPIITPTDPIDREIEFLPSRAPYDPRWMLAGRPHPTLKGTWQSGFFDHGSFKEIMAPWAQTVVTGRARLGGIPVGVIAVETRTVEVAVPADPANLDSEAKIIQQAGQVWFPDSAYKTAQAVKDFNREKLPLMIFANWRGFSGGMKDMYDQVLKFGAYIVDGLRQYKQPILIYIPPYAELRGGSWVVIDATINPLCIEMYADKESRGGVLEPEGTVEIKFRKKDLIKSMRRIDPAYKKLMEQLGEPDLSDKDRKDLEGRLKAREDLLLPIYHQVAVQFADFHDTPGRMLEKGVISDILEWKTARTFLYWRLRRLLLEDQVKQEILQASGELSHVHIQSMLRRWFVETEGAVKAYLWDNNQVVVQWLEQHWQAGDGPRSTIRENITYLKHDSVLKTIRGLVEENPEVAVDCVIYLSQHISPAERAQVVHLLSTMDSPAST

COc1ccc(F)cc1[C@H](Cn1c(=O)n([C@H]2CCCN(C)C2=O)c(=O)c2c(C)c(-c3ncco3)sc21)OCCO [Compound I-63, 1-((R)-2-(5-fluoro-2-methoxyphenyl)-2-(2-hydroxy-ethoxy)ethyl)-5-methyl-3-((S)-1-methyl-2-oxopiperidin-3-yl)-6-(oxazol-2-yl)thieno[2,3-d]pyrimidine-2,4(1H,3H)-dione]
IC50 (Human ACC2): 10 to 100 nM | MIC (C. albicans ATCC 90028; [2]): 2.1 to 4 µg/mL (≈ 3.67 to 6.99 µM) | MIC (C. krusei ATCC 6258; [2]): 2.1 to 4 µg/mL (≈ 3.67 to 6.99 µM) | MIC [1, 2]: 2.1 to 4 µg/mL (≈ 3.67 to 6.99 µM)

CCN1CCC(n2c(=O)c3c(C)c(-n4nccn4)sc3n(C[C@H](OCCO)c3cc(F)ccc3OC)c2=O)C1=O (stereo partly drawn) [Compound I-7, 3-(1-ethyl-2-oxopyrrolidin-3-yl)-1-((R)-2-(5-fluoro-2-methoxyphenyl)-2-(2-hydroxyethoxy)ethyl)-5-methyl-6-(2H-1,2,3-triazol-2-yl)thieno[2,3-d]pyrimidine-2,4(1H,3H)-dione]
IC50 (Human ACC2): 10 to 100 nM | MIC (C. albicans ATCC 90028; [2]): 2.1 to 4 µg/mL (≈ 3.67 to 6.99 µM) | MIC (C. krusei ATCC 6258; [2]): 1.1 to 2 µg/mL (≈ 1.92 to 3.49 µM) | MIC [1, 2]: 2.1 to 4 µg/mL (≈ 3.67 to 6.99 µM)

COc1ccc(F)cc1[C@H](Cn1c(=O)n(C2CCCN(C(C)C)C2=O)c(=O)c2c(C)c(-n3nccn3)sc21)OCCO (stereo partly drawn) [Compound I-20, 1-((R)-2-(5-fluoro-2-methoxyphenyl)-2-(2-hydroxy-ethoxy)ethyl)-3-(1-isopropyl-2-oxopiperidin-3-yl)-5-methyl-6-(2H-1,2,3-triazol-2-yl)thieno[2,3-d]pyrimidine-2,4(1H,3H)-dione]
IC50 (Human ACC2): 10 to 100 nM | MIC (C. albicans ATCC 90028; [2]): 2.1 to 4 µg/mL (≈ 3.5 to 6.66 µM) | MIC (C. krusei ATCC 6258; [2]): 2.1 to 4 µg/mL (≈ 3.5 to 6.66 µM) | MIC [1, 2]: 2.1 to 4 µg/mL (≈ 3.5 to 6.66 µM)

COCCO[C@@H](Cn1c(=O)n([C@@H]2CCN(C)C2=O)c(=O)c2c(C)c(-n3nccn3)sc21)c1cc(F)ccc1OCC#N [Compound I-159, 2-(4-fluoro-2-((R)-1-(2-methoxyethoxy)-2-(5-methyl-3-((R)-1-methyl-2-oxopyrrolidin-3-yl)-2,4-dioxo-6-(2H2H-1,2,3-triazol-2-yl)-3,4-dihydrothieno[2,3-d]pyrimidin-1 (2H)-yl)ethyl)phenoxy)acetonitrile]
IC50 (Human ACC2): > 1000 nM | MIC (C. albicans ATCC 90028): 2.1 to 4 µg/mL (≈ 3.51 to 6.69 µM) | MIC (C. krusei ATCC 6258): 2.1 to 4 µg/mL (≈ 3.51 to 6.69 µM) | MIC [1]: 2.1 to 4 µg/mL (≈ 3.51 to 6.69 µM)

COc1ccc(F)cc1[C@H](Cn1c(=O)n(C2CCN(C)C2=O)c(=O)c2c(C)c(-c3ncco3)sc21)OC1CCOCC1 (stereo partly drawn) [Compound I-59, 1-((R)-2-(5-fluoro-2-methoxyphenyl)-2-((tetrahydro-2H-pyran-4-yl)oxy)ethyl)-5-methyl-3-(1-methyl-2-oxopyrrolidin-3-yl)-6-(oxazol-2-yl)thieno[2,3-d]pyrimidine-2,4(1H,3H)-dione]
IC50 (Human ACC2): 2 to 10 nM | MIC (C. albicans ATCC 90028; [2]): 1.1 to 2 µg/mL (≈ 1.84 to 3.34 µM) | MIC (C. krusei ATCC 6258; [2]): 0.25 to 1 µg/mL (≈ 0.418 to 1.67 µM) | MIC [1, 2]: 2.1 to 4 µg/mL (≈ 3.51 to 6.68 µM)

COc1ccc(F)cc1[C@H](Cn1c(=O)n([C@@H]2CCCN(C)C2=O)c(=O)c2c(C)c(-c3ncco3)sc21)OCCO [Compound I-65, 1-((R)-2-(5-fluoro-2-methoxyphenyl)-2-(2-hydroxy-ethoxy)ethyl)-5-methyl-3-((R)-1-methyl-2-oxopiperidin-3-yl)-6-(oxazol-2-yl)thieno[2,3-d]pyrimidine-2,4(1H,3H)-dione]
IC50 (Human ACC2): 10 to 100 nM | MIC (C. albicans ATCC 90028; [2]): 2.1 to 4 µg/mL (≈ 3.67 to 6.99 µM) | MIC (C. krusei ATCC 6258; [2]): 2.1 to 4 µg/mL (≈ 3.67 to 6.99 µM) | MIC [1, 2]: 2.1 to 4 µg/mL (≈ 3.67 to 6.99 µM)

COc1ccc(F)cc1[C@H](Cn1c(=O)n([C@@H]2CCCNC2=O)c(=O)c2c(C)c(-n3nccn3)sc21)OC1CCOCC1 [Compound I-38, 1-((R)-2-(5-fluoro-2-methoxyphenyl)-2-((tetrahydro-2H-pyran-4-yl)oxy)ethyl)-5-methyl-3-((R)-2-oxopiperidin-3-yl)-6-(2H-1,2,3-triazol-2-yl)thieno[2,3-d]pyrimidine-2,4(1H,3H)-dione]
IC50 (Human ACC2): 10 to 100 nM | MIC (C. albicans ATCC 90028; [2]): 2.1 to 4 µg/mL (≈ 3.51 to 6.68 µM) | MIC (C. krusei ATCC 6258; [2]): 2.1 to 4 µg/mL (≈ 3.51 to 6.68 µM) | MIC [1, 2]: 2.1 to 4 µg/mL (≈ 3.51 to 6.68 µM)

COc1ccc(F)cc1[C@H](Cn1c(=O)n(C2CCCN(C(C)C)C2=O)c(=O)c2c(C)c(-n3nccn3)sc21)OC1CCOCC1 (some centres unmarked) [Compound I-24]
IC50 (Human ACC2): 10 to 100 nM | MIC (C. albicans ATCC 90028; [2]): 0.25 to 1 µg/mL (≈ 0.39 to 1.56 µM) | MIC (C. krusei ATCC 6258; [2]): 0.25 to 1 µg/mL (≈ 0.39 to 1.56 µM) | MIC [1, 2]: 0.25 to 1 µg/mL (≈ 0.39 to 1.56 µM)
